According to patent publication US4411890A, “Synthetic peptides having pituitary growth hormone releasing activity” (Beckman Instruments, Inc., priority 1981, dated 1983):
Where a SMILES comes first, the peptide text is derived from it.

What was measured:
pituitaries = test: In vitro growth hormone release study (incubated rat pituitaries, GH by RIA); assay type: cell-based; settings: GH released at I3, I4 (I5) minus P2, mean ± SEM
Description: Female rats of the CD-1 strain were housed in a constant temperature room at 24° C. with 14 hours light and 10 hours darkness. The rats were fed Purina brand rat chow ab libitum. All studies were started between 0800 and 1000 hours.
Pituitaries were removed from 20 day old female rats. In each polytetrafluoroethylene beaker (10 ml) was incubated two pituitaries at 36° C. in 1 ml of lactated Ringer's solution in a Dubnoff Shaker (90 cycles/min.). All medium in each beaker was removed each hour (e.g., P1, P2, I3, I4, I5) and then fresh medium was added back to each beaker. Each medium removed was assayed for GH, in duplicate, by a standard radioimmunoassay (RIA).
The growth hormone agonist of Example 1 was not added to the incubation mediums employed during the first hour of the incubation period (P1) or to the incubation mediums employed during the second hour of the incubation period (P2). The growth hormone agonist of Example 1 was dissolved in dimethylsulfoxide (DMSO; 10:1, agonist:DMSO), added to each incubation medium employed during the third hour of the incubation period (I3), to each medium employed during the fourth hour of the incubation period (I4), and, when performed, to each medium employed during the fifth hour of the incubation period (I5). The release of growth hormone was recorded as ΔGH and calculated by subtracting the amount of GH released at P2 from that released at I3, I4, and, when performed, I5. The agonist activity was determined from the release at I3, I4, and, when performed, I5. The mean of the ΔGH values obtained from the three beakers per dosage level measured at I3, I4, and, when performed, I5 are set forth in Table VI.

[1] = tested on: Female rats of The CD-1 strain; test: In vivo growth hormone release study (subcutaneous injection, serum GH by RIA); parameters: species or system rat; settings: serum GH about 15 minutes after injection, 21 day old female rats, mean ± SEM
Description: Female rats of The CD-1 strain were housed in a constant temperature room at 24° C. with 14 hours light and 10 hours darkness. The rats were fed Purina brand rat chow ab libitum. All studies were started between 0800 and 1000 hours. Each female rat (21 days old; eight rats per dosage level shown in Table XXVI) was injected subcutaneously with a desired dosage of the peptide of Example 6. Approximately 15 minutes after injection, the rat was guillotined. A blood sample was collected from the guillotined rat. The blood sample was centrifuged and a serum sample was collected therefrom. Each serum sample was assayed for GH, in duplicate, by a standard radioimmunoassay (RIA).

[2] = dosage 30 ng/ml incubation medium
[3] = dosage 100 ng/ml incubation medium
[4] = dosage 1,000 ng/ml incubation medium
[5] = dosage 1 ng/ml incubation medium
[6] = dosage 3 ng/ml incubation medium
[7] = dosage 10 ng/ml incubation medium
[8] = dosage 1.0 μg/ml serum (so in the source)
[9] = dosage 3.0 μg/ml serum (so in the source)
[10] = dosage 10.0 μg/ml serum (so in the source)
[11] = dosage 300 ng/ml incubation medium
[12] = dosage 3,000 ng/ml incubation medium
[13] = dosage 30,000 ng/ml incubation medium
[14] = dosage 10,000 ng/ml incubation medium

| Compound | ΔGH (pituitaries; [2]) | ΔGH (pituitaries; [3]) | ΔGH (pituitaries; [4]) | ΔGH (pituitaries; [7]) | also measured |
| --- | --- | --- | --- | --- | --- |
| C[C@H](NC(=O)[C@@H](Cc1c[nH]c2ccccc12)NC(=O)[C@@H](N)Cc1ccc(O)cc1)C(=O)N[C@@H](Cc1c[nH]c2ccccc12)C(=O)N[C@H](Cc1ccccc1)C(=O)N[C@@H](CC(N)=O)C(N)=O [H2 -Tyr-D-Trp-Ala-Trp-D-Phe-Asn-NH2] (HELM PEPTIDE1{Y.[dW].A.W.[dF].N.[am]}$$$$V2.0) | 244 ng/ml incubation medium | 528 ± 184 ng/ml incubation medium | 1,670 ± 126 ng/ml incubation medium |  |  |
| C[C@H](NC(=O)[C@@H](Cc1c[nH]c2ccccc12)NC(=O)[C@@H](N)Cc1c[nH]cn1)C(=O)N[C@@H](Cc1c[nH]c2ccccc12)C(=O)N[C@H](Cc1ccccc1)C(=O)N[C@@H](CCC(N)=O)C(N)=O [H2 -His-D-Trp-Ala-Trp-D-Phe-Gln-NH2] (HELM PEPTIDE1{H.[dW].A.W.[dF].Q.[am]}$$$$V2.0) |  |  |  | 275 ± 66 ng/ml incubation medium | ΔGH (pituitaries; [5]): 5 ± 136 ng/ml incubation medium; ΔGH (pituitaries; [6]): 140 ± 168 ng/ml incubation medium; ΔGH [1, 8]: 1.4 ± 0.9 ng/ml subcutaneous; ΔGH [1, 9]: 3.8 ± 2.1 ng/ml subcutaneous; ΔGH [1, 10]: 32.1 ± 11.4 ng/ml subcutaneous |
| NCCCC[C@H](NC(=O)[C@@H](Cc1ccccc1)NC(=O)[C@H](Cc1c[nH]c2ccccc12)NC(=O)[C@H](CO)NC(=O)[C@@H](Cc1c[nH]c2ccccc12)NC(=O)[C@@H](N)Cc1c[nH]cn1)C(N)=O [H2 -His-D-Trp-Ser-Trp-D-Phe-Lys-NH2] (HELM PEPTIDE1{H.[dW].S.W.[dF].K.[am]}$$$$V2.0) | 705 ± 149 ng/ml incubation medium |  |  | 161 ± 157 ng/ml incubation medium |  |
| C[C@H](NC(=O)[C@@H](Cc1c[nH]c2ccccc12)NC(=O)[C@@H](N)Cc1c[nH]cn1)C(=O)N[C@@H](Cc1c[nH]c2ccccc12)C(=O)N[C@H](Cc1ccccc1)C(=O)N[C@@H](CCCCN)C(N)=O [H2 -His-D-Trp-Ala-Trp-D-Phe-Lys-NH2] (HELM PEPTIDE1{H.[dW].A.W.[dF].K.[am]}$$$$V2.0) | 2,198 ± 358 ng/ml incubation medium |  |  | 2,244 ± 173 ng/ml incubation medium | ΔGH (pituitaries; [5]): 955 ± 272 ng/ml incubation medium; ΔGH (pituitaries; [6]): 1,603 ± 305 ng/ml incubation medium; ΔGH ([1]; dosage 0.3 μg/ml serum (so in the source)): 6 ± 4 ng/ml subcutaneous; ΔGH [1, 8]: 36 ± 15 ng/ml subcutaneous; ΔGH [1, 9]: 66 ± 15 ng/ml subcutaneous; ΔGH [1, 10]: 100 ± 19 ng/ml subcutaneous; ΔGH ([1]; dosage 30.0 μg/ml serum (so in the source)): 122 ± 4 ng/ml subcutaneous |
| CC(C)[C@H](NC(=O)[C@@H](Cc1c[nH]c2ccccc12)NC(=O)[C@@H](N)Cc1c[nH]cn1)C(=O)N[C@@H](Cc1c[nH]c2ccccc12)C(=O)N[C@H](Cc1ccccc1)C(=O)N[C@@H](CCCCN)C(N)=O [H2 -His-D-Trp-Val-Trp-D-Phe-Lys-NH2] (HELM PEPTIDE1{H.[dW].V.W.[dF].K.[am]}$$$$V2.0) | -118 ± 65 ng/ml incubation medium |  |  |  |  |
| C[C@H](NC(=O)[C@@H](Cc1c[nH]c2ccccc12)NC(=O)[C@@H](N)Cc1c[nH]cn1)C(=O)N[C@@H](Cc1c[nH]c2ccccc12)C(=O)N[C@H](Cc1ccccc1)C(=O)N[C@@H](CCCN)C(N)=O [H2 -His-D-Trp-Ala-Trp-D-Phe-Orn-NH2] (HELM PEPTIDE1{H.[dW].A.W.[dF].[Orn].[am]}$$$$V2.0) |  |  |  | 356 ± 92 ng/ml incubation medium | ΔGH (pituitaries; [5]): -295 ± 93 ng/ml incubation medium |
| C[C@H](NC(=O)[C@@H](Cc1c[nH]c2ccccc12)NC(=O)[C@@H](N)Cc1ccc(O)cc1)C(=O)N[C@@H](Cc1c[nH]c2ccccc12)C(=O)N[C@H](Cc1ccccc1)C(=O)N[C@@H](CCC(=O)O)C(N)=O [H2 -Tyr-D-Trp-Ala-Trp-D-Phe-Glu-NH2] (HELM PEPTIDE1{Y.[dW].A.W.[dF].E.[am]}$$$$V2.0) | 224 ng/ml incubation medium |  |  |  | ΔGH (pituitaries; [11]): 472 ± 104 ng/ml incubation medium; ΔGH (pituitaries; [12]): 1,404 ± 179 ng/ml incubation medium; ΔGH (pituitaries; [13]): 1,909 ± 270 ng/ml incubation medium |
| C[C@H](NC(=O)[C@@H](Cc1c[nH]c2ccccc12)NC(=O)[C@@H](N)Cc1ccc(O)cc1)C(=O)N[C@@H](Cc1c[nH]c2ccccc12)C(=O)N[C@H](Cc1ccccc1)C(=O)N[C@@H](CCC(N)=O)C(N)=O [H2 -Tyr-D-Trp-Ala-Trp-D-Phe-Gln-NH2] (HELM PEPTIDE1{Y.[dW].A.W.[dF].Q.[am]}$$$$V2.0) |  | 2,000 ± 523 ng/ml incubation medium | 4,235 ± 785 ng/ml incubation medium | 240 ng/ml incubation medium | ΔGH (pituitaries; [14]): 4,141 ± 576 ng/ml incubation medium |
| C[C@H](NC(=O)[C@@H](Cc1c[nH]c2ccccc12)NC(=O)[C@@H](N)Cc1ccc(O)cc1)C(=O)N[C@@H](Cc1c[nH]c2ccccc12)C(=O)N[C@H](Cc1ccccc1)C(=O)N[C@@H](Cc1ccccc1)C(N)=O [H2 -Tyr-D-Trp-Ala-Trp-D-Phe-Phe-NH2] (HELM PEPTIDE1{Y.[dW].A.W.[dF].F.[am]}$$$$V2.0) | 10 ± 57 ng/ml incubation medium |  |  |  | ΔGH (pituitaries; [11]): 330 ng/ml incubation medium; ΔGH (pituitaries; [12]): 710 ng/ml incubation medium; ΔGH (pituitaries; [13]): 1,484 ± 135 ng/ml incubation medium |
| H2 -Tyr-D-Trp-Ala-Trp-D-Phe-Lys-NH2 | 1,346 ± 328 ng/ml incubation medium |  |  |  | ΔGH (pituitaries; [11]): 2,160 ± 166 ng/ml incubation medium; ΔGH (pituitaries; [12]): 1,630 ± 135 ng/ml incubation medium; ΔGH (pituitaries; [13]): 1,318 ± 247 ng/ml incubation medium |
| C[C@H](NC(=O)[C@@H](Cc1c[nH]c2ccccc12)NC(=O)[C@@H](N)Cc1ccc(O)cc1)C(=O)N[C@@H](Cc1c[nH]c2ccccc12)C(=O)N[C@H](Cc1ccccc1)C(=O)N[C@H](C(N)=O)[C@@H](C)O [H2 -Tyr-D-Trp-Ala-Trp-D-Phe-Thr-NH2] (HELM PEPTIDE1{Y.[dW].A.W.[dF].T.[am]}$$$$V2.0) |  | 650 ± 320 ng/ml incubation medium | 2,167 ± 591 ng/ml incubation medium | 94 ± 69 ng/ml incubation medium | ΔGH (pituitaries; [14]): 2,957 ± 834 ng/ml incubation medium |
| C[C@H](NC(=O)[C@@H](Cc1c[nH]c2ccccc12)NC(=O)[C@@H](N)Cc1ccc(O)cc1)C(=O)N[C@@H](Cc1c[nH]c2ccccc12)C(=O)N[C@H](Cc1ccccc1)C(=O)N[C@@H](CCC(N)=O)C(=O)O [H2 -Tyr-D-Trp-Ala-Trp-D-Phe-Gln-OH] (HELM PEPTIDE1{Y.[dW].A.W.[dF].Q}$$$$V2.0) |  | 753 ± 559 ng/ml incubation medium | 2,759 ± 515 ng/ml incubation medium |  | ΔGH (pituitaries; [14]): 3,994 ± 1,214 ng/ml incubation medium |
| CSCC[C@H](NC(=O)[C@@H](Cc1ccccc1)NC(=O)[C@H](Cc1c[nH]c2ccccc12)NC(=O)[C@H](C)NC(=O)[C@@H](Cc1c[nH]c2ccccc12)NC(=O)[C@@H](N)Cc1ccc(O)cc1)C(N)=O [H2 -Tyr-D-Trp-Ala-Trp-D-Phe-Met-NH2] (HELM PEPTIDE1{Y.[dW].A.W.[dF].M.[am]}$$$$V2.0) | 456 ± 151 ng/ml incubation medium |  | 1,832 ± 441 ng/ml incubation medium |  | ΔGH (pituitaries; [11]): 1,260 ± 245 ng/ml incubation medium |
| NC(=O)CC[C@H](NC(=O)[C@@H](Cc1ccccc1)NC(=O)[C@H](Cc1c[nH]c2ccccc12)NC(=O)CNC(=O)[C@@H](Cc1c[nH]c2ccccc12)NC(=O)[C@@H](N)Cc1ccc(O)cc1)C(N)=O [H2 -Tyr-D-Trp-Gly-Trp-D-Phe-Gln-NH2] (HELM PEPTIDE1{Y.[dW].G.W.[dF].Q.[am]}$$$$V2.0) | 103 ± 248 ng/ml incubation medium | 167 ng/ml incubation medium | 1,092 ng/ml incubation medium |  |  |
